Among the test systems are Escherichia coli J2210; Escherichia coli JJ2489; Escherichia coli BW25113; Escherichia coli JW0013; Escherichia coli MC1041.
Holding throughout (assay): ≥ marks a high value that may be exact or a test limit, other limits are often not marked, values filed in µg/mL are converted to µM
In test [1] the test system is Pseudomonas aeruginosa 21328.
For test [2], the system named is Pseudomonas aeruginosa ATCC 27853.
Test [3] concerns Escherichia coli ATCC 25922.
In test [4] the test system is Pseudomonas aeruginosa CICC 11421.
Test [5] has as its system Pseudomonas aeruginosa CICC 11411.
Test [6] concerns Pseudomonas aeruginosa CICC 11431.
For test [7], the system named is Pseudomonas aeruginosa CICC 10419.
Test [8] relates to Pseudomonas aeruginosa CICC 21630.
Test [9] concerns Pseudomonas aeruginosa 25349.
In test [10] the test system is Staphylococcus aureus ATCC 29213.
Test [11] has as its system Pseudomonas aeruginosa CICC 21625.
In test [12] the test system is Proteus mirabilis ATCC 35659.
Test [13] concerns Pseudomonas aeruginosa PAO1.
Test [14] deals with Salmonella enterica ATCC H9812.
For test [15], the system named is Enterococcus faecium 5F-10.
The test system of test [16] is Bacillus licheniformis ATCC 14580.
For test [17], the system named is Bacillus cereus ATCC 14579.
The test system of test [18] is Bacillus amyloliquefaciens ATCC 23842.
For test [19], the system named is Enterococcus faecalis 1F-1.
Test [20] relates to Bacillus subtilis ATCC 6051.
For test [21], the system named is Escherichia coli JW0368 ΔsbmA.
Test [22] has as its system Escherichia coli JW2778 ΔygdD.
For test [23], the system named is Salmonella typhimurium SL1344.
Test [24] relates to Salmonella enterica subsp. enterica serovar Enteritidis MH91989.
Test [25] concerns Escherichia coli ATCC 2592.
Test [26] has as its system Candida albicans ATCC 10231.
Test [27] has as its system Cryptococcus neoformans ATCC 32045.
For test [28], the system named is Staphylococcus aureus ATCC 33591.
Test [29] deals with Pseudomonas aeruginosa ATCC 10145.

Results on six molecules are retold here after DBAASP.

Values after ≈ are worked out from the molar mass of the structure shown. Some results are limits rather than exact numbers.

In the case of `CC(C)C[C@H](NC(=O)[C@H](CCCN=C(N)N)NC(=O)[C@H](CCCN=C(N)N)NC(=O)[C@H](CC(C)C)NC(=O)[C@H](CCCN=C(N)N)NC(=O)[C@H](CCCN=C(N)N)NC(=O)[C@H](CCCN=C(N)N)NC(=O)[C@H](Cc1c[nH]c2ccccc12)NC(=O)[C@H](CCCN=C(N)N)NC(=O)[C@H](CCCN=C(N)N)NC(=O)[C@H](CCCN=C(N)N)NC(=O)[C@H](CC(C)C)NC(=O)[C@H](CCCN=C(N)N)NC(=O)[C@H](CCCN=C(N)N)NC(=O)[C@@H](N)CC(C)C)C(N)=O` [LRRLRRRWRRRLRRL], the minimum inhibitory concentration (MIC) – broadly, the lowest concentration found to suppress growth – in [1] was found to be 14.4 µM (≈ 32 µg/mL); in [2] it was 7.21 µM (≈ 16 µg/mL); in test [3], 7.21 µM (≈ 16 µg/mL); in test [4], 14.4 µM (≈ 32 µg/mL); in [5], 14.4 µM (≈ 32 µg/mL); in [6], 7.21 µM (≈ 16 µg/mL). For the same molecule, the minimal inhibitory concentration (MIC) in [7] amounted to 14.4 µM (≈ 32 µg/mL); in [8], 7.21 µM (≈ 16 µg/mL); in test [9], 3.61 µM (≈ 8 µg/mL); in test [10], 7.21 µM (≈ 16 µg/mL); in test [11], 7.21 µM (≈ 16 µg/mL).

Regarding `CC(C)C[C@H](N)C(=O)N[C@@H](CO)C(=O)N[C@@H](CCCN=C(N)N)C(=O)N[C@H](C(=O)N[C@@H](CC(=O)O)C(=O)O)C(C)C` [LSRVD], the MIC was no less than 217 µM in test [12]; greater than 217 µM in [13]; no less than 109 µM in [14]; 109 µM (≈ 64 µg/mL) in [3]; no less than 217 µM in [15]; no less than 217 µM in test [16]. The MIC is no less than 217 µM in test [17]; no less than 217 µM in [18]; no less than 217 µM in test [19]; greater than 217 µM in test [10]; no less than 217 µM in [20].

As to `CC(C)C[C@H](NC(=O)[C@H](CCCN=C(N)N)NC(=O)[C@H](CCCN=C(N)N)NC(=O)[C@H](CC(C)C)NC(=O)[C@H](CCCN=C(N)N)NC(=O)[C@H](CCCN=C(N)N)NC(=O)[C@H](CCCN=C(N)N)NC(=O)[C@H](Cc1c[nH]c2ccccc12)NC(=O)[C@H](Cc1c[nH]c2ccccc12)NC(=O)[C@H](Cc1c[nH]c2ccccc12)NC(=O)[C@H](CCCN=C(N)N)NC(=O)[C@H](CCCN=C(N)N)NC(=O)[C@H](CCCN=C(N)N)NC(=O)[C@H](CC(C)C)NC(=O)[C@H](CCCN=C(N)N)NC(=O)[C@H](CCCN=C(N)N)NC(=O)[C@@H](N)CC(C)C)C(N)=O` [LRRLRRRWWWRRRLRRL], the minimal inhibitory concentration (MIC) in test [1] was determined as 1.54 µM (≈ 4 µg/mL); in [3] it was 1.54 µM (≈ 4 µg/mL); in [4] it was 3.09 µM (≈ 8 µg/mL); in [5], 1.54 µM (≈ 4 µg/mL); in test [6], 1.54 µM (≈ 4 µg/mL); in test [7], 3.09 µM (≈ 8 µg/mL). Also, the MIC worked out at 1.54 µM (≈ 4 µg/mL) in test [8], 1.54 µM (≈ 4 µg/mL) in test [9], 3.09 µM (≈ 8 µg/mL) in test [10] and 3.09 µM (≈ 8 µg/mL) in test [11].

Regarding `CC(C)C[C@H](NC(=O)[C@H](CCCN=C(N)N)NC(=O)[C@@H]1CCCN1C(=O)[C@H](CCCN=C(N)N)NC(=O)[C@@H]1CCCN1C(=O)[C@@H]1CCCN1C(=O)[C@H](CCCN=C(N)N)NC(=O)[C@@H]1CCCN1C(=O)[C@H](CCC(N)=O)NC(=O)[C@@H]1CCCN1C(=O)[C@H](CCCN=C(N)N)NC(=O)[C@H](Cc1ccc(O)cc1)NC(=O)[C@@H](NC(=O)[C@@H]1CCCN1C(=O)[C@H](CCCCN)NC(=O)[C@H](CC(N)=O)NC(=O)[C@H](CC(N)=O)NC(=O)CN)C(C)C)C(=O)O` [GNNKPVYRPQPRPPRPRL], the MIC in test [21] was 0.133 µM (≈ 0.285 µg/mL); with Escherichia coli J2210, 0.252 µM (≈ 0.54 µg/mL); in [22] it was 0.192 µM (≈ 0.411 µg/mL); against Escherichia coli JJ2489, 0.133 µM (≈ 0.285 µg/mL); against Escherichia coli BW25113 it was 0.096 µM (≈ 0.206 µg/mL); with Escherichia coli JW0013, 0.096 µM (≈ 0.206 µg/mL). Besides, the figures for the MIC (in [23]; in test [24]; against Escherichia coli MC1041) were 0.192 µM (≈ 0.411 µg/mL), 0.096 µM (≈ 0.206 µg/mL) and 0.126 µM (≈ 0.27 µg/mL), respectively.

For `NCCCC[C@H](NC(=O)[C@H](Cc1ccccc1)NC(=O)[C@H](Cc1ccccc1)NC(=O)[C@H](CCCCN)NC(=O)[C@H](CCCCN)NC(=O)[C@H](Cc1ccccc1)NC(=O)[C@H](Cc1ccccc1)NC(=O)[C@H](CCCCN)NC(=O)[C@H](CCCCN)NC(=O)[C@H](Cc1ccccc1)NC(=O)[C@H](Cc1ccccc1)NC(=O)[C@H](CCCCN)NC(=O)[C@H](CCCCN)NC(=O)[C@H](Cc1ccccc1)NC(=O)[C@H](Cc1ccccc1)NC(=O)[C@H](CCCCN)NC(=O)[C@H](CCCCN)NC(=O)[C@H](Cc1ccccc1)NC(=O)[C@H](Cc1ccccc1)NC(=O)[C@H](CCCCN)NC(=O)[C@H](CCCCN)NC(=O)[C@H](Cc1ccccc1)NC(=O)[C@H](Cc1ccccc1)NC(=O)[C@H](CCCCN)NC(=O)[C@H](CCCCN)NC(=O)[C@H](Cc1ccccc1)NC(=O)[C@H](Cc1ccccc1)NC(=O)[C@@H](N)CCCCN)C(=O)O` [KFFKKFFKKFFKKFFKKFFKKFFKKFFK], the minimal inhibitory concentration (MIC) in test [25] was no less than 32.3 µM; in test [26], 91.3 µM (≈ 354 µg/mL); in test [27], 22.7 µM (≈ 88 µg/mL); in test [28], no less than 64.6 µM; in test [29], no less than 32.3 µM.

Regarding `CC(C)C[C@H](NC(=O)[C@H](CCC(=O)O)NC(=O)[C@H](CC(=O)O)NC(=O)[C@@H](NC(=O)[C@H](CCCN=C(N)N)NC(=O)[C@H](CO)NC(=O)[C@@H](N)CC(C)C)C(C)C)C(=O)O` [LSRVDEL], the MIC in test [12] was no less than 154 µM; in test [13], greater than 154 µM; in [14] it was no less than 154 µM; in test [3] it was greater than 154 µM; in test [15], no less than 154 µM; in test [16], no less than 154 µM. Further, the MIC in test [17] was no less than 154 µM; in test [18], no less than 154 µM; in [19], no less than 154 µM; in test [10], greater than 154 µM; in test [20] it was no less than 154 µM.
